Reference: ChEMBL document CHEMBL3877258, “Targeting cytochrome P450 (CYP) 1B1 with steroid derivatives” (Bioorg Med Chem Lett, 2016)

The compounds below were run against T1, CYP1B1 (Homo sapiens, UniProt Q16678) (assay: Inhibition of recombinant human CYP1B1 expressed in bacterial microsomes co-expressing P450 reductase at 3 uM using 7-ethyl-O-resorufin as substrate after 45 mins in presence of NADPH by fluorescence assay relative to control). Details: probe 7-ethyl-O-resorufin.
T1 sequence (Q16678 whole entry): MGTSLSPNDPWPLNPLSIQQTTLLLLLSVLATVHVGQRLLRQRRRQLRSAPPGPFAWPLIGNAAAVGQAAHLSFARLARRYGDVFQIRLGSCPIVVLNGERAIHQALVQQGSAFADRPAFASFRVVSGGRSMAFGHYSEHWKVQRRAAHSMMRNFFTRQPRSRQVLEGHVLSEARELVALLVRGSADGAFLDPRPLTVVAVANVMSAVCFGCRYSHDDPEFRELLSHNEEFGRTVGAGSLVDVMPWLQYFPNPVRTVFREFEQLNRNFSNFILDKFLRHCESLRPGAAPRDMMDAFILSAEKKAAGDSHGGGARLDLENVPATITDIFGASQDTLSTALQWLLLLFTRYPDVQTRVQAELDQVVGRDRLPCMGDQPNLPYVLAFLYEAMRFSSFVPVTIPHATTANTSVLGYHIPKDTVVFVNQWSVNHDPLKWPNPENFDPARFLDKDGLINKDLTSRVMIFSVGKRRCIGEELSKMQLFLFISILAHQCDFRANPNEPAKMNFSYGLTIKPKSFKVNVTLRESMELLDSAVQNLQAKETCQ
Compound `COc1ccc2c(c1)CC[C@@H]1[C@@H]2CC[C@]2(C)C(=O)CC[C@@H]12` has an inhibition at 0.75 h, 3 µM of 2%. In the case of `C[C@]12CC[C@@H]3c4cc(F)c(O)cc4CC[C@H]3[C@@H]1CC[C@@H]2O`, the inhibition at 0.75 h, 3 µM is reported as 28.7%. For `C[C@]12CC[C@@H]3c4ccc(O)c(F)c4CC[C@H]3[C@@H]1CC[C@@H]2O`, the inhibition at 0.75 h, 3 µM was 7.5%. Compound `C[C@]12CC[C@@H]3c4ccc(O)cc4CC[C@H]3[C@@H]1C[C@@H](CCCBr)[C@@H]2O` has an inhibition at 0.75 h, 3 µM of 2%. Compound `C[C@]12CC[C@@H]3c4cc(Br)c(O)c(Br)c4CC[C@H]3[C@@H]1CC[C@@H]2O` has an inhibition at 0.75 h, 3 µM of 1%. Work on `C[C@]12CC[C@@H]3c4ccccc4CC[C@H]3[C@@H]1CCC2=O` yielded an inhibition at 0.75 h, 3 µM of 11.3%. In the case of `C[C@]12CC[C@@H]3c4cc(Br)c(O)cc4CC[C@H]3[C@@H]1CC[C@@H]2O`, the inhibition at 0.75 h, 3 µM is reported as 22.6%. Compound `C[C@]12CC[C@@H]3c4ccc(OC(N)=O)cc4CC[C@H]3[C@@H]1CCC2=O` has an inhibition at 0.75 h, 3 µM of 9.9%. `COc1cc2c(cc1OS(N)(=O)=O)CC[C@@H]1[C@@H]2CC[C@]2(C)[C@@H](O)CC[C@@H]12` gave an inhibition at 0.75 h, 3 µM of 23.8%. `C[C@]12CC[C@@H]3c4ccc(O)c(Br)c4CC[C@H]3[C@@H]1CC[C@@H]2O` showed an inhibition at 0.75 h, 3 µM of 29%. `Cc1cc2c(cc1O)CC[C@@H]1[C@@H]2CC[C@]2(C)[C@@H](O)CC[C@@H]12` gave an inhibition at 0.75 h, 3 µM of 1%. `C[C@]12CC[C@@H]3c4ccc(OS(=O)(=O)O)cc4CC[C@H]3[C@@H]1CC[C@@H]2O` gave an inhibition at 0.75 h, 3 µM of 0.9%. Compound `COc1cc2c(cc1OS(N)(=O)=O)CC[C@@H]1[C@@H]2CC[C@@]2(C)[C@H]1CC[C@@]2(O)Cc1ccccc1` has an inhibition at 0.75 h, 3 µM of 7.7%. `C#C[C@]1(O)CC[C@H]2[C@@H]3CCc4c(ccc(O)c4Br)[C@H]3CC[C@@]21C` showed an inhibition at 0.75 h, 3 µM of 7.5%. `C[C@]12CC[C@@H]3c4ccc(C5CO5)cc4CC[C@H]3[C@@H]1CCC2=O` (stereo not given in full) gave an inhibition at 0.75 h, 3 µM of 12.4%. With `CCCCCCCN(C=O)[C@H]1CC[C@H]2[C@@H]3CCc4cc(O)ccc4[C@H]3CC[C@]12C` the inhibition at 0.75 h, 3 µM was 0%. For `C[C@]12CC[C@@H]3c4ccc(O)cc4C(=O)C[C@H]3[C@@H]1CC[C@@H]2O`, the inhibition at 0.75 h, 3 µM was 9.7%. `C[C@]12CC[C@@H]3c4ccc(OS(N)(=O)=O)cc4CC[C@H]3[C@@H]1CC[C@@]2(O)CN1CCN(C(=O)[C@H](Cc2ccccc2)NC(=O)CCC2CCCC2)CC1` gave an inhibition at 0.75 h, 3 µM of 14.9%. For `Cc1ccc(S(=O)(=O)/N=S(\C)c2ccc3c(c2)CC[C@@H]2[C@@H]3CC[C@]3(C)C(=O)CC[C@@H]23)cc1` (stereo not given in full), the inhibition at 0.75 h, 3 µM was 0.1%. Compound `C[C@]12CC[C@@H]3c4ccc(OS(N)(=O)=O)cc4CC[C@H]3[C@@H]1C[C@H](CCCNC(=O)C(Cc1ccccc1)NC(=O)Cc1ccccc1)[C@@H]2O` (stereo not given in full) has an inhibition at 0.75 h, 3 µM of 22.8%. Compound `C[C@]12CC[C@@H]3c4ccc([N+](C)(C)[O-])cc4CC[C@H]3[C@@H]1CCC2=O` has an inhibition at 0.75 h, 3 µM of 36.6%. With `C[C@]12CC[C@@H]3c4cc([N+](=O)[O-])c(O)c([N+](=O)[O-])c4CC[C@H]3[C@@H]1CC[C@@H]2O` the inhibition at 0.75 h, 3 µM was 11.4%. Work on `C[C@]12CC[C@@H]3c4ccccc4C(=O)C[C@H]3[C@@H]1CCC2=O` yielded an inhibition at 0.75 h, 3 µM of 16%. For `COc1cc2c(cc1O)CC[C@@H]1[C@@H]2CC[C@@]2(C)[C@H]1CC[C@@]2(O)Cc1ccccc1`, the inhibition at 0.75 h, 3 µM was 0%. `C#C[C@]1(O)CC[C@H]2[C@@H]3CCc4cc(O)c(Br)cc4[C@H]3CC[C@@]21C` was tested, and the inhibition at 0.75 h, 3 µM was 8.4%. Compound `C[C@]12CC[C@@H]3c4ccc(OS(N)(=O)=O)cc4CC[C@H]3[C@@H]1C[C@H](CCCNC(=O)C1CCCN1C(=O)Cc1ccccc1)[C@@H]2O` (stereo not given in full) has an inhibition at 0.75 h, 3 µM of 21.4%. For `C[C@]12CC[C@@H]3c4ccccc4C(O)C[C@H]3[C@@H]1CC[C@@H]2O` (stereo not given in full), the inhibition at 0.75 h, 3 µM was 20%. `C[C@]12CC[C@@H]3c4ccc(NC(=O)O)cc4CC[C@H]3[C@@H]1CCC2=O` was tested, and the inhibition at 0.75 h, 3 µM was 8.9%. Work on `CCCCCCCN(C=O)[C@H]1CC[C@H]2[C@@H]3CCc4cc(OC)ccc4[C@H]3CC[C@]12C` yielded an inhibition at 0.75 h, 3 µM of 3.5%. Work on `C[C@]12CC[C@@H]3c4ccc(O)cc4CC[C@H]3[C@@H]1C[C@H](CCCNC(=O)C(Cc1ccccc1)NC(=O)Cc1ccccc1)[C@@H]2O` (stereo not given in full) yielded an inhibition at 0.75 h, 3 µM of 7.7%. For `C[C@]12CC[C@@H]3c4ccc(N)cc4CC[C@H]3[C@@H]1CCC2=O`, the inhibition at 0.75 h, 3 µM was 16.2%. `C[C@]12CC[C@@H]3c4ccc(C(=O)O)cc4CC[C@H]3[C@@H]1CCC2=O` gave an inhibition at 0.75 h, 3 µM of 11.5%. `C[C@]12CC[C@@H]3c4ccc(OCCBr)cc4CC[C@H]3[C@@H]1CC[C@@H]2O` showed an inhibition at 0.75 h, 3 µM of 11.1%. `C[C@]12CC[C@@H]3c4ccc(S)cc4CC[C@H]3[C@@H]1CCC2=O` showed an inhibition at 0.75 h, 3 µM of 61.1 to 61.6%. With `CCc1ccc2c(c1)CC[C@@H]1[C@@H]2CC[C@]2(C)C(=O)CC[C@@H]12` the inhibition at 0.75 h, 3 µM was 42.8%. With `CC(=O)c1ccc(C(=O)N2CCCC2C(=O)NCCCCCCCCCCC[C@@H]2Cc3cc(O)ccc3[C@H]3CC[C@]4(C)[C@@H](O)CC[C@H]4[C@H]23)cc1` (stereo not given in full) the inhibition at 0.75 h, 3 µM was 22.1%. Work on `CNS(=O)(=O)Oc1cc2c(cc1OS(=O)(=O)NC)[C@H]1CC[C@]3(C)C(=O)CC[C@H]3[C@@H]1CC2` yielded an inhibition at 0.75 h, 3 µM of 30.3%. `CCS(=O)(=O)Oc1ccc2c(c1)CC[C@@H]1[C@@H]2CC[C@]2(C)C(=O)CC[C@@H]12` showed an inhibition at 0.75 h, 3 µM of 0.3%. Compound `CCCCCCCN[C@H]1CC[C@H]2[C@@H]3CCc4ccc(OC)cc4[C@H]3CC[C@]12C` has an inhibition at 0.75 h, 3 µM of 9.4%. With `COc1cc2c(cc1O)CC[C@@H]1[C@@H]2CC[C@]2(C)C(=O)CC[C@@H]12` the inhibition at 0.75 h, 3 µM was 13.2%. `C[C@]12CC[C@@H]3c4ccc(O)cc4CC[C@H]3[C@@H]1CC[C@@]21CCC(=O)O1` was tested, and the inhibition at 0.75 h, 3 µM was 13.9%. For `COc1cc2c(cc1O)CC[C@@H]1[C@@H]2CC[C@]2(C)[C@@H](O)CC[C@@H]12` [2-METHOXYESTRADIOL], the inhibition at 0.75 h, 3 µM was 4.4%. `O=c1cc(-c2ccccc2)oc2c1ccc1ccccc12` [ALPHA-NAPHTHOFLAVONE] showed an inhibition at 0.75 h, 3 µM of 89.2%. In the case of `C[C@]12CC[C@@H]3c4ccc(OS(N)(=O)=O)cc4CC[C@H]3[C@@H]1CCC2=O` [EMATE], the inhibition at 0.75 h, 3 µM is reported as 8.6%.

The compounds below were run against T2, Cytochrome P450 1B1 (Homo sapiens, UniProt Q16678) (assay: Inhibition of recombinant human CYP1B1 expressed in bacterial microsomes co-expressing P450 reductase using 7-ethyl-O-resorufin as substrate after 45 mins in presence of NADPH by fluorescence assay). Details: not given.
T2 sequence (Q16678 whole entry): T1 sequence (Q16678 whole entry)
`C[C@]12CC[C@@H]3c4ccc(S)cc4CC[C@H]3[C@@H]1CCC2=O` was tested, and the IC50 was 3.4 µM.
